Results: article PMC4139342, “Pharmacokinetics-Pharmacodynamics Analysis of Bicyclic 4-Nitroimidazole Analogs in a Murine Model of Tuberculosis” (PLoS ONE, 2014)

System: H37Rv::F420-mutants, F420 deficient (FbiC mutant)
Assay type: cell-based, M. tuberculosis

| Structure (SMILES) | H37Rv::F420-mutants MIC99 [µg/mL] |
| --- | --- |
| CC[C@H]1Oc2nc([N+](=O)[O-])cn2C[C@@H]1NCc1ccc(OC(F)(F)F)cc1 [NI-182] | >10 |
| O=[N+]([O-])c1cn2c(n1)OC[C@@H](NCCc1ccc(OC(F)(F)F)cc1)C2 [AminoEthyl-824] | >10 |
| O=[N+]([O-])c1cn2c(n1)OC1(CC1)C(OCc1ccc(OC(F)(F)F)cc1)C2 (centres unmarked) [NI-302] | >10 |
| CC[C@@H]1Oc2nc([N+](=O)[O-])cn2C[C@@H]1NCc1ccc(OC(F)(F)F)cc1 [NI-269] | >10 |
| O=[N+]([O-])c1cn2c(n1)OC[C@@H](NCc1ccc(OC(F)(F)F)c(F)c1)C2 [NI-136] | >10 |
| O=C(CO[C@@H]1COc2nc([N+](=O)[O-])cn2C1)N1CCN(c2ccc(OC(F)(F)F)cc2)CC1 [NI-622] | >10 |
| CC[C@@H]1Oc2nc([N+](=O)[O-])cn2C[C@@H]1NCc1ccc(OC(F)(F)F)c(F)c1 [NI-176] | >10 |
| CC[C@H]1Oc2nc([N+](=O)[O-])cn2C[C@@H]1NCc1ccc(-c2ccc(OC(F)(F)F)cc2)cc1 [NI-297] | >10 |
| O=[N+]([O-])c1cn2c(n1)OC[C@@H](NCc1ccc(OC(F)(F)F)c(Cl)c1)C2 [NI-135] | >10 |
| O=[N+]([O-])c1cn2c(n1)OC[C@@H](NCc1ccc(OC(F)(F)F)cc1)C2 [Amino-824, ((s)-2-nitro-6,7-dihydro-5H-imidazo[2,1-b][1,3]oxazin-6-yl)-(4-trifluoromethoxybenzyl)amine] | >10 |
| O=C(CO[C@@H]1COc2nc([N+](=O)[O-])cn2C1)N1CCN(c2ccc(C(F)(F)F)cn2)CC1 [NI-644] | >10 |
| O=[N+]([O-])c1cn2c(n1)OC[C@@H](NCc1ccc(OC(F)(F)F)c(O)c1)C2 [NI-147] | >10 |
| CC[C@@H]1Oc2nc([N+](=O)[O-])cn2C[C@@H]1OCc1ccc(OC(F)(F)F)cc1 [NI-145] | >10 |
| O=[N+]([O-])c1cn2c(n1)OC[C@@H](OCc1ccc(OC(F)(F)F)cc1)C2 [PA-824, (6S)-2-nitro-6-{[4-(trifluoromethoxy)benzyl]oxy}-6,7-dihydro-5H-imidazo[2,1-b][1, 3]oxazine, reference compound] | >10 |
